Assay results taken from patent US8399674B2, “Quinolines” (Hoffman-La Roche Inc., priority 2007, dated 2013).

molecular target: T1, recombinant human 5-HT5A receptor (Homo sapiens, UniProt P47898); assay: [3H]LSD radioligand binding assay, membranes of HEK-EBNA cells transiently expressing the receptor; conditions: [3H]LSD approx. 1 nM, 120 min room temperature, Ki from IC50 by Cheng-Prussoff equation, read-out: Ki (affinity towards the human 5-HT5A receptor)
T1 construct: expressed in transfected cells; host or cells: HEK-EBNA (Human Embryonic Kidney-EBNA) cells, transient transfection; membranes
T1 sequence (P47898 whole entry): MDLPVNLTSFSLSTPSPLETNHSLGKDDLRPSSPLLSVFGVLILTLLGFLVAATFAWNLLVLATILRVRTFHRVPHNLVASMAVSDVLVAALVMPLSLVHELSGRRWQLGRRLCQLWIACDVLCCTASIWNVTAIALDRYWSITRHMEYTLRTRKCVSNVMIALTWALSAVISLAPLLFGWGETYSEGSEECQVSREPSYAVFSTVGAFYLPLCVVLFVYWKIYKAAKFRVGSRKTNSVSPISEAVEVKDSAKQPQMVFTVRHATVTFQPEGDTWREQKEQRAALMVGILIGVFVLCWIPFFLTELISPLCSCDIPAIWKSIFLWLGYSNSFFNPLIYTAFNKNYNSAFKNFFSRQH
Method: A [^3H] LSD radioligand binding assay was used to determine the affinity of the compounds for the recombinant human 5-HT5A receptor, in membranes from transiently (cDNA) expressed 5-HT5A receptors in Human Embryonic Kidney-EBNA (HEK-EBNA) cells.
Assay buffer consisted of Tris (50 mM) buffer containing 1 mM EGTA, 10 mM MgCl2 (pH 7.4) and 10 μM pargyline. The binding assay was carried out in 96-well-plates in the presence of [^3H]LSD (approximately 1 nM), approximately 2 μg/well of membrane protein, and 0.5 mg of Ysi-poly-1-lysine SPA beads in a final volume of 200 μl of buffer. Non-specific binding was defined using methiothepin 2 μM. Compounds were tested at 10 concentrations. All assays were conducted in duplicate and repeated at least two times. Assay plates were incubated for 120 min at room temperature before centrifugation. Bound ligand was determined using a Packard Topcount scintillation counter. IC50 values were calculated using a non-linear curve fitting program and Ki values calculated using the Cheng-Prussoff equation.

| Structure (SMILES) | Ki [nM] |
| --- | --- |
| COc1ccccc1CNc1ccc2cc(CCc3ccccc3)ccc2n1 [Example 4, (2-Methoxy-benzyl)-(6-phenethyl-quinolin-2-yl)-amine] | 104 |
| c1ccc(OCCNc2ccc3cc(NCc4ccncc4)ccc3n2)cc1 [Example 7, N2-(2-Phenoxy-ethyl)-N6-pyridin-4-ylmethyl-quinoline-2,6-diamine] | 101 |
| COc1cccc(CNc2ccc3nc(NCCOc4ccccc4)ccc3c2)c1 [Example 10, N6-(3-Methoxy-benzyl)-N2-(2-phenoxy-ethyl)-quinoline-2,6-diamine] | 42 |
| COc1ccccc1CNc1ccc2cc(/C=C/c3cccnc3)ccc2n1 [Example 14, (2-Methoxy-benzyl)-[6-((E)-2-pyridin-3-yl-vinyl)-quinolin-2-yl]-amine] | 60 |
| COc1ccccc1CNc1ccc2cc(CCc3cccnc3)ccc2n1 [Example 18, (2-Methoxy-benzyl)-[6-(2-pyridin-3-yl-ethyl)-quinolin-2-yl]-amine] | 87 |
| COc1ccccc1CNc1ccc2cc(NCCCn3ccnc3)ccc2n1 [Example 23, N6-(3-Imidazol-1-yl-propyl)-N2-(2-methoxy-benzyl)-quinoline-2,6-diamine] | 129 |
| COc1cccc(CNc2ccc3nc(NCc4ccc(C)o4)ccc3c2)c1 [Example 28, N6-(3-Methoxy-benzyl)-N2-(5-methyl-furan-2-ylmethyl)-quinoline-2,6-diamine] | 44 |
| COc1cccc(-c2cc(NCc3ccccc3OC)nc3ccc(NCc4cccnc4)cc23)c1 [Example 33, N-2-(2-Methoxy-benzyl)-4-(3-methoxy-phenyl)-N-6-pyridin-3-ylmethyl-quinoline-2,6-diamine] | 50 |
| COc1cc(F)ccc1CNc1cc(-c2ccccc2)c2cc(NCc3ccccc3)ccc2n1 [Example 36, N-6-Benzyl-N-2-(4-fluoro-2-methoxy-benzyl)-4-phenyl-quinoline-2,6-diamine] | 42 |
| COc1cc(F)ccc1CNc1cc(-c2ccccc2)c2cc(NCc3ccncc3)ccc2n1 [Example 37, N-2-(4-Fluoro-2-methoxy-benzyl)-4-phenyl-N-6-&-pyridin-4-ylmethyl-quinoline-2,6-diamine] | 40 |
| COc1cc(F)ccc1CNc1cc(-c2ccccc2C)c2cc(NCc3ccccc3)ccc2n1 [Example 38, N-6-2-Benzyl-N-2-(4-fluoro-2-methoxy-benzyl)-4-o-tolyl-quinoline-2,6-diamine] | 41 |
| COCCNc1cc(NCc2ccc(F)cc2OC)nc2ccc(NCc3ccccc3)cc12 [Example 42, N6-Benzyl-N2-(4-fluoro-2-methoxy-benzyl)-N4-(2-methoxy-ethyl)-quinoline-2,4,6-triamine] | 169 |
| COc1ccccc1CNc1ccc2cc(COc3ccccc3)ccc2n1 [Example 43, (2-Methoxy-benzyl)-(6-phenoxymethyl-quinolin-2-yl)-amine] | 73 |
| COc1cc(F)ccc1CNc1cc(N)c2cc(NCc3ccccc3)ccc2n1 [Example 44, N6-Benzyl-N2-(4-fluoro-2-methoxy-benzyl)-quinoline-2,4,6-triamine] | 40 |
| Cc1ccc(CNc2ccc3cc(CNc4cccnc4)ccc3n2)o1 [Example 49, (5-Methyl-furan-2-ylmethyl)-[6-(pyridin-3-ylaminomethyl)-quinolin-2-yl]-amine] | 128 |
| COc1ccc(OC(=O)Nc2ccc3nc(NCc4ccccc4OC)ccc3c2)cc1 [Example 80, [2-(2-Methoxy-benzylamino)-quinolin-6-yl]-carbamic acid 4-methoxy-phenyl ester] | 87 |
| COc1ccccc1CNc1ccc2cc(NS(=O)(=O)Nc3ccc(F)cc3)ccc2n1 [Example 81, N-(4-fluorophenyl)-N′-{2-[(2-methoxybenzyl)amino]quinolin-6-yl}sulfamide] | 40 |

Other lines, results leading:

| Ki [nM] | Structure (SMILES) |
| --- | --- |
| 22 | c1ccc(OCCNc2ccc3cc(NCc4cccnc4)ccc3n2)cc1 [Example 1, N2-(2-Phenoxy-ethyl)-N6-pyridin-3-ylmethyl-quinoline-2,6-diamine] |
| 27 | COc1ccccc1CNc1ccc2cc(NCc3cccnc3)ccc2n1 [Example 6, N2-(2-Methoxy-benzyl)-N6-pyridin-3-ylmethyl-quinoline-2,6-diamine] |
| 22 | COc1ccccc1CNc1ccc2cc(NCc3ccccc3)ccc2n1 [Example 8, N6-Benzyl-N2-(2-methoxy-benzyl)-quinoline-2,6-diamine] |
| 26 | COc1ccccc1CNc1ccc2nc(NCCOc3ccccc3)ccc2c1 [Example 9, N6-(2-Methoxy-benzyl)-N2-(2-phenoxy-ethyl)-quinoline-2,6-diamine] |
| 11 | COc1ccccc1CNc1cc(-c2ccccc2)c2cc(NCc3cccnc3)ccc2n1 [Example 13, N2-(2-Methoxy-benzyl)-4-phenyl-N6-pyridin-3-ylmethyl-quinoline-2,6-diamine] |
| 17 | COc1ccccc1CNc1ccc2nc(NCc3ccccc3OC)ccc2c1 [Example 15, N2,N6-Bis-(2-methoxy-benzyl)-quinoline-2,6-diamine] |
| 17 | COc1cccc(CNc2ccc3nc(NCc4ccccc4OC)ccc3c2)c1 [Example 16, N6-(3-Methoxy-benzyl)-N2-(2-methoxy-benzyl)-quinoline-2,6-diamine] |
| 25 | COc1ccccc1CNc1ccc2cc(NCc3ccccc3OC(F)(F)F)ccc2n1 [Example 17, N2-(2-Methoxy-benzyl)-N6-(2-trifluoromethoxy-benzyl)-quinoline-2,6-diamine] |
| 22 | COc1cccc(CNc2ccc3nc(NCc4ccccc4OC)cc(-c4ccccc4)c3c2)c1 [Example 19, N6-(3-Methoxy-benzyl)-N2-(2-methoxy-benzyl)-4-phenyl-quinoline-2,6-diamine] |
| 30 | COc1ccccc1CNc1ccc2nc(NCc3ccccc3OC)cc(-c3ccccc3)c2c1 [Example 20, N2,N6-Bis-(2-methoxy-benzyl)-4-phenyl-quinoline-2,6-diamine] |
| 22 | Cc1ccc(CNc2ccc3cc(NCc4cccnc4)ccc3n2)o1 [Example 25, N2-(5-Methyl-furan-2-ylmethyl)-N6-pyridin-3-ylmethyl-quinoline-2,6-diamine] |
| 30 | COc1ccccc1CNc1ccc2nc(NCc3ccc(C)o3)ccc2c1 [Example 27, N6-(2-Methoxy-benzyl)-N2-(5-methyl-furan-2-ylmethyl)-quinoline-2,6-diamine] |
| 32 | Cc1ccc(CNc2ccc3cc(NCc4ccccc4)ccc3n2)o1 [Example 29, N6-Benzyl-N2-(5-methyl-furan-2-ylmethyl)-quinoline-2,6-diamine] |
| 17 | COc1cc(F)ccc1CNc1cc(-c2ccccc2)c2cc(NCc3cccnc3)ccc2n1 [Example 31, N-2-(4-Fluoro-2-methoxy-benzyl)-4-phenyl-N-6-pyridin-3-ylmethyl-quinoline-2,6-diamine] |
| 12 | COc1ccccc1CNc1cc(-c2ccccc2C)c2cc(NCc3cccnc3)ccc2n1 [Example 32, N2-(2-Methoxy-benzyl)-N6-pyridin-3-ylmethyl-4-o-tolyl-quinoline-2,6-diamine] |
| 22 | COc1ccccc1CNc1cc(-c2cc(F)ccc2F)c2cc(NCc3cccnc3)ccc2n1 [Example 35, 4-(2,5-Difluoro-phenyl)-N2-(2-methoxy-benzyl)-N6-pyridin-3-ylmethyl-quinoline-2,6-diamine] |
| 30 | COc1ccccc1CNc1cc(N)c2cc(NCc3ccccc3)ccc2n1 [Example 47, N6-Benzyl-N2-(2-methoxy-benzyl)-quinoline-2,4,6-triamine] |
| 15 | COc1ccccc1CNc1cc(N)c2cc(NCc3cccnc3)ccc2n1 [Example 51, N2-(2-Methoxy-benzyl)-N6-pyridin-3-ylmethyl-quinoline-2,4,6-triamine] |
| 22 | Cc1ccc(CNc2cc(N)c3cc(NCc4cccnc4)ccc3n2)o1 [Example 54, N2-(5-Methyl-furan-2-ylmethyl)-N6-pyridin-3-ylmethyl-quinoline-2,4,6-triamine] |
| 22 | Cc1ccc(CNc2cc(N)c3cc(NCc4ccccc4)ccc3n2)o1 [Example 55, N6-Benzyl-N2-(5-methyl-furan-2-ylmethyl)-quinoline-2,4,6-triamine] |
| 37 | COc1cccc(CNc2ccc3cc(NCc4cccnc4)ccc3n2)c1 [Example 57, N2-(3-Methoxy-benzyl)-N6-pyridin-3-ylmethyl-quinoline-2,6-diamine] |
| 27 | c1cncc(CNc2ccc3nc(NCc4cccc5c4OCO5)ccc3c2)c1 [Example 73, N2-Benzo[1,3]dioxol-4-ylmethyl-N6-pyridin-3-ylmethyl-quinoline-2,6-diamine] |
| 30 | COc1ccc(NC(=O)Nc2ccc3nc(NCc4ccccc4OC)ccc3c2)cc1 [Example 79, 1-[2-(2-Methoxy-benzylamino)-quinolin-6-yl]-3-(4-methoxy-phenyl)-urea] |
| 25 | COc1ccccc1CNc1ccc2cc(Nc3cccc(CCO)c3)ccc2n1 [Example 103, 2-{3-[2-(2-Methoxy-benzylamino)-quinolin-6-ylamino]-phenyl}-ethanol] |

tested on: not given; assay: not given; conditions: not given

| melting point [°C] | Structure (SMILES) |
| --- | --- |
| 217 | COc1ccccc1CNC(=O)c1ccc2nc(NCc3ccccc3OC)ccc2c1 [Example 76, 2-(2-Methoxy-benzylamino)-quinoline-6-carboxylic acid 2-methoxy-benzylamide] |
| 175 | COc1ccccc1CNc1ccc2cc(Nc3ncccn3)ccc2n1 [Example 84, N2-(2-Methoxy-benzyl)-N6-pyrimidin-2-yl-quinoline-2,6-diamine] |
